Results on two compounds are retold here after ChEMBL document CHEMBL3779887, “Robenidine Analogues as Gram-Positive Antibacterial Agents” (J Med Chem, 2016).

≈ marks a conversion by molar mass, not a printed value. Calls of active or inactive are those of the source.

One data set concerns Staphylococcus aureus. The data set can be described thus: Antibacterial activity against methicillin-resistant Staphylococcus aureus after 20 to 24 hrs. The class given is functional.
The next data set concerns Enterococcus. The data set can be described thus: Antibacterial activity against vancomycin-resistant Enterococcus after 20 to 24 hrs. The class given is functional.
For the next data set, the system named is Escherichia coli. The data set can be described thus: Antibacterial activity against Escherichia coli ATCC 25922 after 20 to 24 hrs. The class given is functional.
Another data set concerns Pseudomonas aeruginosa. The data set can be described thus: Antibacterial activity against Pseudomonas aeruginosa ATCC 27853 after 20 to 24 hrs. The class given is functional.
The nature of data set [1]: Selectivity ratio of MIC for methicillin-resistant Staphylococcus aureus to MIC for vancomycin-resistant Enterococcus. The class given is functional.
A short description of data set [2]: Lipophilicity, logD of the compound at pH 3. The class given is physicochemical. The note with it: buffer.
Data set [3] can be described thus: Lipophilicity, logD of the compound at pH 7.4. The class given is physicochemical. As to conditions: buffer.
Data set [4] in a line: Solubility of the compound at pH 2. The class given is physicochemical. As to conditions: buffer.
Data set [5] in a line: Solubility of the compound at pH 6.5. The class given is physicochemical. The note with it: buffer.
Data set [6] in a line: Half life of compound in human liver microsomes. The class given is ADME. (In general: Liver microsomes are a subcellular fraction often used to study metabolism.)
A short description of data set [7]: Half life of compound in mouse liver microsomes. The class given is ADME.
The nature of data set [8]: Intrinsic clearance in human liver microsomes assessed per mg of protein. The class given is ADME. As to conditions: read-out: CLH.
Data set [9] can be described thus: Intrinsic clearance in mouse liver microsomes assessed per mg of protein. The class given is ADME. The note with it: read-out: CLH.
Data set [10] is described as follows: Metabolic stability in human liver microsomes assessed as compound loss after 60 mins. The class given is ADME. As to conditions: read-out: Drug degradation.

Regarding `N=C(N/N=C/c1cccc(Br)c1)N/N=C/c1cccc(Br)c1`, the MIC against Staphylococcus aureus is over 400 µM; against Enterococcus, 15.4 µM (≈ 6.52 µg/mL); with Escherichia coli it was over 400 µM; against Pseudomonas aeruginosa, over 400 µM. Also, in data set [1], the Selectivity ratio worked out at 10.

As to `N=C(N/N=C(\CO)c1ccc(Cl)cc1)N/N=C(\CO)c1ccc(Cl)cc1`, the MIC is 20.3 µM (≈ 8 µg/mL) in the data set on Staphylococcus aureus and 15.2 µM (≈ 5.99 µg/mL) with Enterococcus. For the same compound, the outcome with Escherichia coli was inactive. Further, the logD turned out to be 3.2 in data set [2] and 4 in [3]. Also, the solubility in [4] is 25 µg/mL (≈ 63.4 µM); in [5], under 1.6 µg/mL. Moreover, the results for the half-life in data set [6] and in data set [7] were over 4.12 h and 2.18 h, respectively. Also, the figures for the microsomal CLint in [8] and in data set [9] were under 7 µL/min/mg and 13 µL/min/mg, respectively. Further, the metabolised at 1 h in data set [10] is under 15%.

Broadly, the MIC is the lowest concentration that inhibits growth of the organism. Low readings indicate a more susceptible organism, high ones a less susceptible organism. For orientation: logD means lipophilicity at a set pH, counting ionised and neutral species. In general, solubility refers to the dissolved amount per volume that the medium holds. As usually defined, the half-life is the time needed for the level to fall by half in the phase considered. Lower therefore signals fast loss.
